Experimental data: US8912123B2, “Safened herbicidal compositions including 4-amino-3-chloro-5-fluoro-6-(4-chloro-2-fluoro-3-methoxyphenyl)pyridine-2-carboxylic acid or a derivative thereof and methods for their use” (Dow AgroSciences, LLC., priority 2012, dated 2014)

Tested on: winter barley (Hordeum vulgare, HORVW)
Test: Post-emergence field trial, visual crop injury (ear deformation) in winter barley
Assay type: in vivo
Conditions: for Observed Visual Injury - Ear Deformation (%) 227 DAA HORVW: no safener, 1 L/ha Agnique BL3095, post-emergence field, scale 0-100
Description: A post-emergence field trial was conducted under field conditions in Helbigsdorf, Germany. Trial site was located in commercially grown fields of winter barley (Hordeum vulgare, HORVW) using standard herbicide small plot research methodology. Postemergence trial plot was 2.5 meter (m)×5 m (width×length) with 3 replicates per treatment. The crop was grown using normal cultural practices for fertilization, seeding, and maintenance to ensure good growth of the crop and the weeds. Trial treatments included spray formulations containing 4-amino-3-chloro-5-fluoro-6-(4-chloro-2-fluoro-3-methoxy-phenyl)pyridine-2-carboxylic acid (Compound A) at various rates and optionally including cloquintocet mexyl. All treatments in the post-emergence field trials were applied using a bicycle sprayer compressed air/gas sprayer with flat fan nozzles (90°) calibrated to apply 200 L/ha spray volume at approximately 250 kPa nozzle pressure. The spray formulations for Trials 1-4 listed in Table 1 included Dow AgroSciences testing formulation Compound A (listed in acid equivalent per hectare (g ae/ha)), Agnique BL3095 (Cognis, France; listed as liters of product per hectare (L pr/ha)), and optionally cloquintocet mexyl (listed as grams of active ingredient per hectare (g ai/ha)). The spray solutions were mixed in water at the levels indicated in Table 1 to achieve the desired rates based on a unit area of application (hectare). Data for observed visual injury is provided for 227 days after application (DAA) in Table 1. Visual crop injury (ear deformation) was scored on a scale of 0 to 100 percent where 0 corresponds to no injury and 100 correspond to damage at all plants. All treatment results, both for the single product and mixture, are with 4 replicates. The trial sites had naturally occurring populations of weeds. The weed spectrum included loose silky-bent ([…]).

Row | Compound | Safening of the compound of formula I in winter barley (conclusion from Table 1, winter barley) | Observed Visual Injury - Ear Deformation (%) 227 DAA HORVW (Compound A 10 g ae/ha) | Observed Visual Injury - Ear Deformation (%) 227 DAA HORVW (Compound A 20 g ae/ha) | Observed Visual Injury - Ear Deformation (%) 227 DAA HORVW (Compound A 30 g ae/ha)
1 | CCCCCC(C)OC(=O)COc1ccc(Cl)c2cccnc12 (stereo not shown) [cloquintocet-mexyl, reference compound] | safened |  |  | 
2 | COc1c(Cl)ccc(-c2nc(C(=O)O)c(Cl)c(N)c2F)c1F [Compound A, 4-amino-3-chloro-5-fluoro-6-(4-chloro-2-fluoro-3-methoxy-phenyl)pyridine-2-carboxylic acid] |  | 27% | 30% | 30%
